The values below come from BindingDB's records for doi:10.1016/j.ejmech.2019.111601 (National Institute of Pharmaceutical Education and Research …, 2019).

The term IC50 denotes the point on the concentration scale where inhibition reaches its midpoint.

The target in the first experiment is Prostaglandin G/H synthase 1 (Ovis aries) (UniProt P05979). As to the kind of experiment: Inhibition of ovine COX1 assessed as reduction in PGF2alpha incubated for 2 mins using arachidonic acid as substrate by ELISA.
With `CC(=O)N(C1=CC(=O)CCC1)c1ccc(Cl)cc1`, the IC50 was 39.9 µM.
Still for that read-out and setting: for `O=C1C=C(Nc2ccc(Cl)cc2)CCC1` the value was 38 µM; for `CC(C)(C)OC(=O)N(C1=CC(=O)CCC1)c1ccc(Cl)cc1`, 17.8 µM.

The target of the next experiment is Prostaglandin G/H synthase 2 (Homo sapiens) (UniProt P35354). As to the kind of experiment: Inhibition of recombinant human COX2 assessed as reduction in PGF2alpha incubated for 2 mins using arachidonic acid as substrate by ELISA. Background: In an ELISA, binding on a coated surface is turned into a signal by an enzyme label.
Chain of Prostaglandin G/H synthase 2 (Homo sapiens) (P35354 whole entry, looked up): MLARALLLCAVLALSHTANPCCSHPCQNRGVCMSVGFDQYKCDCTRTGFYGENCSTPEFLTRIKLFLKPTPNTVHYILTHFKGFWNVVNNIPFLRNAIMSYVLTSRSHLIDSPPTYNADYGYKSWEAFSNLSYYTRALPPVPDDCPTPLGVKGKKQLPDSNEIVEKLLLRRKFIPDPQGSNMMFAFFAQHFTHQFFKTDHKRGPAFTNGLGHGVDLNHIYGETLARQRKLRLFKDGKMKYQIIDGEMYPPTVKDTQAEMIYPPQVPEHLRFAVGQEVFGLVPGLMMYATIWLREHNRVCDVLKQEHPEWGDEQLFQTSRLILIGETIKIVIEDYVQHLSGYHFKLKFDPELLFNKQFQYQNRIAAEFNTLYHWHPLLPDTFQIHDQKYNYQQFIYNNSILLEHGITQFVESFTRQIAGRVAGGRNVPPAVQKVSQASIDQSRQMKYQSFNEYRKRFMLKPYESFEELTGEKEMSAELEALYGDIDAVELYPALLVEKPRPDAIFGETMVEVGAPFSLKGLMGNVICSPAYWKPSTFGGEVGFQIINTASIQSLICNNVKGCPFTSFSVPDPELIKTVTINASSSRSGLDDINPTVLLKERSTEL
In the case of `CC(=O)N(C1=CC(=O)CCC1)c1ccc(Cl)cc1`, the IC50 was 367 nM.
Same read-out and setting: for `O=C1C=C(Nc2ccc(Cl)cc2)CCC1` the value was 513 nM; for `CC(C)(C)OC(=O)N(C1=CC(=O)CCC1)c1ccc(Cl)cc1`, 915 nM.
